Source: patent publication US6956046B2, “4-hydroxypiperidine derivatives having analgesic activity” (priority 2001, dated 2005)
One block for each molecule: values may come before it.

Key:
[1] = tested on: formalin-induced nociceptive response in rats; assay: Inhibitory effect on the formalin-induced nociceptive response in rats; type: in vivo, rat; settings: oral, 30 minutes before subcutaneous formalin; probit method
Procedure: [Inhibitory Effect on the Formalin-induced Nociceptive Response in Rats]
The experiment was undertaken by the method disclosed by Doak et al., Eur. J. Pharmacol. 281:311, 1995. Specifically, 50 μL of 0.5% formalin solution was subcutaneously injected into the left foot pad of the rat, and then each behavior of the rat consisting of the licking or biting of the pad immediately following the injection was checked with a stopwatch for its duration, and its cumulative duration was recorded at five minute intervals. The nociceptive response observed in 10 minutes after the injection was termed a first-phase response while the response observed between 10 minutes and 45 minutes after the injection was termed a second-phase response. The test compound was orally applied to the rat 30 minutes before the subcutaneous injection of formalin. Then, the inhibitory effect of the test compound on the nociceptive response induced by the formalin injection was calculated according to the following formula and 30% inhibition dose (ED30 value) was determined by the probit method. To mention, for illustration, ED30 value of carbamazepine was 27 mg/kg. Percent inhibition (%)=[(PRcontrol−PRtest)/PRcontrol]×100 wherein PRtest is the response time (sec) of the test group which received formalin and the test compound, while PRcontol is the response time of the control group which. received formalin and vehicle.

[2] = tested on: rat model made by loosely constricting the sciatic nerve; assay: Efficacy in the rat model made by loosely constricting the sciatic nerve (von Frey response threshold); type: in vivo; settings: for Mean threshold (g) Injured foot (left) / Mean threshold (g) Normal foot (right): one hour after dosing
Procedure: [Efficacy in the Rat Model Made by Loosely Constricting the Sciatic Nerve]
Preparation of the rat pain model based on the constriction of the sciatic nerve was performed by the method introduced by Bennett et al. (“Pain,” 33:87, 1988). Specifically, the rat was anesthetized with i.p. injection of pentobarbital sodium at 40 mg/kg; the overlying skin was cut open; and the left biceps femoris muscle was bluntly separated. The sciatic nerve was isolated from surrounding tissues; it was gently constricted at four sites about 1 mm apart from each other by the use of surgical gut sutures (4-0 or 3-0 chromic gut); the operated part was closed; and the rat was returned to its cage for further feeding. For the rat belonging to the sham-surgery group, the same operation was performed except that the sciatic nerve was left untouched. Two weeks after the surgery, the response threshold to a mechanical stimulus consisting of touch with von Frey filaments was determined. The test proceeded as follows: the test compound was orally applied to the rat having the sciatic nerve constricted; one hour later, von Frey hairs were applied against the foot pad (spots ranging from heel to the mid-point of foot) one after another in an ascending order of their stiffness; if the rat raises its foot when a certain von Frey hair was applied, the stimulus intensity of that hair was taken as the response threshold (maximum stimulus intensity being 28.84 g).

[3] = tested on: Wistar Hannover female rats; assay: Toxicological study, oral, rats; type: in vivo, rat
Procedure: The compounds of Example 8 or Example 12 were orally given to 6 week-old Wistar Hannover female rats at 40 mg/kg/day.
The compound of Example 29 was orally given to 6 week-old Wistar Hannover female rats at 400 mg/Kg/day once daily for 14 days, respectively.

[4] = Metabolic stability in monkey liver microsomes and hepatocytes; type: in vitro ADME
[5] = Pharmacokinetics: plasma concentration after a single oral administration; type: in vivo; settings: male rhesus monkey
Source text: The compound of Example 12 or Example 29 were studied about time-course profile of plasma concentration after a single oral administration to 3 or 4 year-old male rhesus monkey. […] Therefore, it can be considered to cause unlikely the drug-drug interaction by the compounds. […] Therefore, it can be considered that the compounds are unlikely metabolized by first pass effect.

[6] = Metabolic stability in human liver microsomes and hepatocytes; type: in vitro ADME
rhesus male monkeys = assay: Toxicological study, oral, 14 days, monkeys; type: in vivo, rhesus monkey; settings: for survival: until 24 hours after final administration
Procedure: The compound Example 12 or Example 29 were orally given to 3 year-old rhesus male monkeys at 20 mg/Kg/day and 40 mg/Kg/day, respectively, once daily for 14 days.

[7] = tested on: human-drug metabolizing enzymes; assay: Inhibitory effect on human-drug metabolizing enzymes; type: in vitro ADME
[8] = Metabolic stability in rat liver microsomes and hepatocytes; type: in vitro ADME
[9] = Metabolic stability in dog liver microsomes and hepatocytes; type: in vitro ADME
rhesus male monkey = assay: Holter ECG test; type: in vivo; settings: oral 80 mg/Kg, 4 year-old rhesus male monkey
Procedure: In Holter ECG test, the compound of Example 12 or Example 29 were orally given to 4 year-old rhesus male monkey at 80 mg/Kg. There was no effect in electrocardiogram.

[10] = oral 40 mg/kg/day, 6 week-old female rats
[11] = oral 40 mg/kg/day, 6 week-old female rats, examination period
[12] = oral 20 mg/Kg/day once daily for 14 days
[13] = oral 40 mg/Kg/day once daily for 14 days
[14] = oral 400 mg/Kg/day once daily for 14 days

SMILES: NC(=O)N1c2ccccc2C=Cc2ccccc21 [Carbamazepine, carbamazepine, reference compound]
- ED30 value (30% inhibition dose) [1]: 27 mg/kg
- Mean threshold (g) Injured foot (left) ([2]; dose 30 mg/kg oral): 9.01 g
- Mean threshold (g) Normal foot (right) ([2]; dose 30 mg/kg oral): 20.53 g
- threshold of the injured paw to a mechanical stimulus (in words) ([2]; injured side): significantly raised
- response threshold of the normal paw (in words) ([2]; normal side): significantly raised

- melting point: 251 to 254.9 °C
SMILES: Cl.N#Cc1ccc(CCN2CCC(O)(COc3ccc(C(N)=O)cc3)CC2)cc1

- melting point: 246.5 to 249.6 °C
SMILES: CN(CC1(O)CCN(CCc2ccc(S(C)(=O)=O)cc2)CC1)c1ccc(C(=O)O)cc1.Cl

- melting point: 159.7 to 171.8 °C
SMILES: CN(CC1(O)CCN(CCc2ccc(C#N)cc2)CC1)c1ccc(-c2nnn[nH]2)cc1 [Example 17, 4-{2-[4-hydroxy-4-({methyl[4-(1H-tetrazol-5-yl)phenyl]-amino}methyl)piperidin-1-yl]ethyl}benzonitrile]

- melting point: 181.9 to 189.1 °C
SMILES: CN(CC1(O)CCN(CCc2ccc(C#N)cc2)CC1)c1cccc(C(=O)O)c1 [Example 15, 3-({1-[2-(4-cyanophenyl)ethyl]-4-hydroxypiperidin-4-ylmethyl}methylamino)benzoic acid]

- melting point: 169.8 to 173.6 °C
SMILES: CN(CC1(O)CCN(CCc2ccc(C#N)cc2)CC1)c1ccc([N+](=O)[O-])cc1.Cl

- melting point: 106.5 to 116.2 °C
SMILES: CN(CC1(O)CCN(CCc2ccc(C#N)cc2)CC1)c1ccccc1C(=O)O [Example 19, 2-({1-[2-(4-cyanophenyl)ethyl]-4-hydroxypiperidin-4-ylmethyl}methylamino)benzoic acid]

- melting point: 195.3 to 200.6 °C
SMILES: CN(CC1(O)CCN(CCc2ccc(C#N)cc2)CC1)c1ccccc1C(=O)O.Cl

- melting point: 242.5 to 245 °C
SMILES: CN(CC1(O)CCN(CCc2ccccc2)CC1)c1ccc(C(=O)O)cc1.Cl

- melting point: 197.2 to 222.4 °C
SMILES: CN(CC1(O)CCN(CCc2ccccc2C#N)CC1)c1ccc(C(=O)O)cc1.Cl

SMILES: Cl.N#Cc1ccc(CCN2CCC(O)(COc3ccc(CO)cc3)CC2)cc1 [Example 8, 1-[2-(4-cyanophenyl)ethyl]-4-(4-hydroxymethylphenoxymethyl)piperidin-4-ol hydrochloride]
- general appearance [3, 10]: no abnormalities
- survival [3, 11]: all the rats survived

- melting point: 134.7 to 156.7 °C
SMILES: N#Cc1ccc(CCN2CCC(O)(COc3ccc([N+](=O)[O-])cc3)CC2)cc1 [Example 6, 1-[2-(4-cyanophenyl)ethyl)-4-(4-nitrophenoxymethyl)piperidin-4-ol]

SMILES: Cl.N#Cc1ccc(CCN2CCC(O)(COc3ccc(C(=O)O)cc3)CC2)cc1 [Example 12, 4-{1-[2-(4-cyanophenyl)ethyl]-4-hydroxypiperidin-4-ylmethoxy}benzoic acid hydrochloride]
- metabolic stability [4]: metabolically stable
- bioavailability [5]: very good bioavailability
- maximum plasma concentration (Cmax) and area under the plasma concentration-time curve (AUC) versus dose [5]: increased almostly in proportion to the doses
- ED30 value (30% inhibition dose) [1]: 2.0 mg/kg
- metabolic stability [6]: metabolically stable
- Mean threshold (g) Injured foot (left) ([2]; dose 1 mg/kg oral): 7.96 g
- Mean threshold (g) Normal foot (right) ([2]; dose 1 mg/kg oral): 14.29 g
- Mean threshold (g) Injured foot (left) ([2]; dose 3 mg/kg oral): 8.92 g
- Mean threshold (g) Normal foot (right) ([2]; dose 3 mg/kg oral): 14.71 g
- Mean threshold (g) Injured foot (left) ([2]; dose 10 mg/kg oral): 10.96 g
- Mean threshold (g) Normal foot (right) ([2]; dose 10 mg/kg oral): 14.29 g
- general appearances, body weight gains and food consumptions (rhesus male monkeys; [12]): no abnormalities
- hematology, biochemistry, organ weight, and histopathology (rhesus male monkeys; [12]): No abnormal findings
- survival (rhesus male monkeys; [12]): All the monkeys survived
- general appearance [3, 10]: no abnormalities
- survival [3, 11]: all the rats survived
- inhibitory effect on human-drug metabolizing enzymes [7]: no serious inhibitory effect
- metabolic stability [8]: metabolically stable
- metabolic stability [9]: metabolically stable
- effect in electrocardiogram (rhesus male monkey): no effect

- melting point: 166.8 to 176.4 °C
SMILES: CN(CC1(O)CCN(CCc2cccc(C#N)c2)CC1)c1ccc(C(=O)O)cc1.Cl

- melting point: 98.3 to 108.1 °C
SMILES: CN(CC1(O)CCN(CCc2ccc(C#N)cc2)CC1)c1ccc([N+](=O)[O-])cc1 [Example 16, 4-[2-(4-hydroxy-4-{[methyl(4-nitrophenyl)amino]methyl}piperidin-1-yl)ethyl]benzonitrile]

- melting point: 183.7 to 189.7 °C
SMILES: COC(=O)c1ccc(OCC2(O)CCN(CCc3ccc(C#N)cc3)CC2)cc1.Cl

- melting point: 192.1 to 193.2 °C
SMILES: N#Cc1ccc(CCN2CCC(O)(COc3ccc(C(N)=O)cc3)CC2)cc1 [Example 5, 4-(4-carbamoylphenoxymethyl)-1-[2-(4-cyanophenyl)ethyl]-piperidin-4-ol]

- melting point: 253 to 255.6 °C
SMILES: Cl.N#Cc1ccc(CCN2CCC(O)(COc3ccc(O)cc3)CC2)cc1

- melting point: 125.5 to 129.7 °C
SMILES: CN(CC1(O)CCN(CCc2ccc(C#N)cc2)CC1)c1cccc(C(=O)O)c1.Cl

- melting point: 219.6 to 221.3 °C
SMILES: Cl.N#Cc1ccc(CCN2CCC(O)(COc3ccc([N+](=O)[O-])cc3)CC2)cc1 [Example 11, 1-[2-(4-cyanophenyl)ethyl]-4-(4-nitrophenoxymethyl)piperidin-4-ol hydrochloride]
- ED30 value (30% inhibition dose) [1]: 0.047 mg/kg

SMILES: CN(CC1(O)CCN(CCc2ccc(C#N)cc2)CC1)c1ccc(C(=O)O)cc1.Cl [Example 29, 4-({1-[2-(4-cyanophenyl)ethyl]-4-hydroxypiperidin-4-ylmethyl}methylamino)benzoic acid monohydrochloride]
- metabolic stability [4]: metabolically stable
- bioavailability [5]: very good bioavailability
- maximum plasma concentration (Cmax) and area under the plasma concentration-time curve (AUC) versus dose [5]: increased almostly in proportion to the doses
- ED30 value (30% inhibition dose) [1]: 1.2 mg/kg
- metabolic stability [6]: metabolically stable
- Mean threshold (g) Injured foot (left) ([2]; dose 1 mg/kg oral): 5.22 g
- Mean threshold (g) Normal foot (right) ([2]; dose 1 mg/kg oral): 14.12 g
- Mean threshold (g) Injured foot (left) ([2]; dose 3 mg/kg oral): 7.09 g
- Mean threshold (g) Normal foot (right) ([2]; dose 3 mg/kg oral): 14.49 g
- Mean threshold (g) Injured foot (left) ([2]; dose 10 mg/kg oral): 8.61 g
- Mean threshold (g) Normal foot (right) ([2]; dose 10 mg/kg oral): 15.49 g
- general appearances, body weight gains and food consumptions (rhesus male monkeys; [13]): no abnormalities
- hematology, biochemistry, organ weight, and histopathology (rhesus male monkeys; [13]): No abnormal findings
- survival (rhesus male monkeys; [13]): All the monkeys survived
- general appearances, body weight gains and food consumptions [3, 14]: no abnormalities
- hematology, biochemistry, organ weight, and histopathology [3, 14]: No abnormal findings
- survival ([3]; oral 400 mg/Kg/day once daily for 14 days, until 24 hours after final administration): All the rats survived
- inhibitory effect on human-drug metabolizing enzymes [7]: no serious inhibitory effect
- metabolic stability [8]: metabolically stable
- metabolic stability [9]: metabolically stable
- effect in electrocardiogram (rhesus male monkey): no effect

- melting point: 247.7 to 253.2 °C
SMILES: Cl.N#Cc1ccc(CCN2CCC(O)(CNc3ccc(C(=O)O)cc3)CC2)cc1
